Test results taken from patent US20230203081A1, “LINCOSAMIDE ANTIBIOTICS AND USES THEREOF” (President and Fellows of Harvard College, priority 2020, published 2023).
≈ marks a conversion by molar mass, not a printed value. Where two headings read alike, the source gives them in different places.

What was measured:
Type in all cases: cell-based
S. aureus MMX 3035 cErmA = experiment: MIC (broth microdilution or agar dilution, CLSI); conditions: Staphylococcus aureus, MMX3035CERMA; S. aureus HAV#031, MMX 3035; cErmA; read-out: MIC
Experimental: (§1) Minimum inhibitory concentrations (MICs) were determined by broth microdilution method or agar dilution method following the Clinical and Laboratory Standards Institute guidelines. Standard bacterial strains were obtained from American Type Culture Collection (ATCC). Other bacterial strains were obtained from hospitals and commercial sources, so noted in Table 11. […] Specialized procedures were employed for streptococcal and anaerobic strains. All other bacterial strains were sub-cultured on blood agar plates (tryptic soy agar with 5% sheep blood, Hardy Diagnostics) and incubated overnight at 35° C. […] Suspensions were further diluted to obtain a final inoculum of 5×10^5 CFU/mL for broth microdilution experiments.

S. pneumoniae ATCC 49619 = experiment: MIC (broth microdilution or agar dilution, CLSI); conditions: Streptococcus pneumoniae, read-out: MIC
Experimental: as §1

E. coli LptD = experiment: MIC (broth microdilution or agar dilution, CLSI); conditions: Escherichia coli, read-out: MIC
Experimental: as §1

S. aureus ATCC 29213 = experiment: MIC (broth microdilution or agar dilution, CLSI); conditions: Staphylococcus aureus, read-out: MIC
Experimental: as §1

K. oxytoca Clinical = experiment: MIC (broth microdilution or agar dilution, CLSI); conditions: Klebsiella oxytoca, read-out: MIC
Experimental: as §1

E. coli ATCC 25922 = experiment: MIC (broth microdilution or agar dilution, CLSI); conditions: Escherichia coli, ATCC25922, read-out: MIC
Experimental: as §1

E. faecalis ATCC 29212 = experiment: MIC (broth microdilution or agar dilution, CLSI); conditions: Enterococcus faecalis, read-out: MIC
Experimental: as §1

S. pyogenes ATCC 19615 = experiment: MIC (broth microdilution or agar dilution, CLSI); conditions: Streptococcus pyogenes, read-out: MIC
Experimental: as §1

E. coli ΔTolC = experiment: microbe, parasite or virus in culture; conditions: Escherichia coli
Experimental: as §1

[1] = test system: broad panel of different clinical isolates; experiment: microbe, parasite or virus in culture
Experimental: as §1

E. faecium Clinical VRE = experiment: MIC (broth microdilution or agar dilution, CLSI); conditions: Enterococcus faecium; E. faecium Clinical VRE; read-out: MIC
Experimental: (§2) Minimum inhibitory concentrations (MICs) were determined by broth microdilution method or agar dilution method following the Clinical and Laboratory Standards Institute guidelines. Standard bacterial strains were obtained from American Type Culture Collection (ATCC). Other bacterial strains were obtained from hospitals and commercial sources, so noted in Table 11. Before the start of the MIC experiment, standard and test compound stock solutions were prepared in dimethyl sulfoxide (DMSO, Aldrich D2650) at a stock concentration of 5,120 μg/mL. The compound concentration range typically employed for each experiment was 128-0.06 μg/mL (2.5% final DMSO concentration). Clindamycin was used as a comparator in all experiments and each experiment was performed in triplicate. Specialized procedures were employed for streptococcal and anaerobic strains. All other bacterial strains were sub-cultured on blood agar plates (tryptic soy agar with 5% sheep blood, Hardy Diagnostics) and incubated overnight at 35° C. Organisms were suspended in cation-adjusted Mueller-Hinton broth (CaMHB, BD 212322) and optical density was adjusted to 0.5 McFarland standard. Suspensions were further diluted to obtain a final inoculum of 5×10^5 CFU/mL for broth microdilution experiments.

S. aureus cErmA = experiment: MIC (broth microdilution or agar dilution, CLSI); conditions: Staphylococcus aureus; S. aureus cErmA; read-out: MIC
Experimental: as §2

[2] = ATCC49619, S. pneumoniae ATCC 49619
[3] = ATCC29213, S. aureus ATCC 29213
[4] = ATCC29212, E. faecalis ATCC 29212
[5] = ATCC19615, S. pyogenes ATCC 19615

For `O=C(N[C@H](CO)[C@H](O)c1ccc([N+](=O)[O-])cc1)C(Cl)Cl` [Chloramphenicol], the MIC (S. aureus MMX 3035 cErmA) was 16 mg/L (≈ 49.5 µM), the MIC (S. pneumoniae ATCC 49619; ATCC49619, S. pneumoniae HAV#003, ATCC 49619) was 4 mg/L (≈ 12.4 µM) and the MIC (E. coli LptD; E. coli HAV#040, LptD) was 4 mg/L (≈ 12.4 µM). For the same compound, the MIC (S. aureus ATCC 29213; ATCC29213, S. aureus HAV#001, ATCC 29213, MP-549) was 8 mg/L (≈ 24.8 µM), the MIC (K. oxytoca Clinical; K. oxytoca HAV#450, Clinical) was 8 mg/L (≈ 24.8 µM) and the MIC (E. coli ATCC 25922; E. coli HAV#006, ATCC 25922) was 8 mg/L (≈ 24.8 µM). The MIC (E. faecalis ATCC 29212; ATCC29212, E. faecalis HAV#005, ATCC 29212) was 8 mg/L (≈ 24.8 µM), the MIC (S. pyogenes ATCC 19615; ATCC19615, S. pyogenes HAV#004, ATCC 19615) was 4 mg/L (≈ 12.4 µM) and the MIC (E. coli ΔTolC; E. coli HAV#038, ΔTolC) was 8 mg/L (≈ 24.8 µM). For the same compound, the MIC ([1]; Enterococcus faecalis, VRE, E. faecalis HAV#251, Clinical VRE) was 4 mg/L (≈ 12.4 µM), the MIC ([1]; Enterococcus faecium, VRE, E. faecium HAV#318, VanA) was 8 mg/L (≈ 24.8 µM) and the MIC ([1]; Klebsiella pneumoniae, K. pneumoniae HAV#041, Clinical, KPC) was greater than 128 mg/L. The MIC ([1]; Staphylococcus aureus, S. aureus HAV#216, Clinical, cfr) was greater than 128 mg/L, the MIC ([1]; Staphylococcus aureus, S. aureus HAV#217, cfr) was greater than 128 mg/L and the MIC ([1]; Staphylococcus epidermidis, S. epidermidis HAV# 275 Clinical, cfr) was greater than 128 mg/L. For the same compound, the MIC ([1]; Staphylococcus epidermidis, S. epidermidis HAV# 276, cfr) was greater than 128 mg/L.
`CS[C@H]1O[C@H]([C@H](NC(=O)[C@H]2NC[C@@H]3C[C@H](CC(C)C)CCO[C@H]32)[C@H](C)Sc2ccc(CN3CCOCC3)cc2)[C@H](O)[C@H](O)[C@H]1O` [FSA-09-05-68, (4S,5aS,8S,8aR)-4-Isobutyl-N-((1S,2S)-2-((4-(morpholinomethyl)phenyl)thio)-1-((2R,3R,4S,5R,6R)-3,4,5-trihydroxy-6-(methylthio)tetrahydro-2H-pyran-2-yl)propyl)octahydro-2H-oxepino[2,3-c]pyrrole-8-carboxamide] was tested, and the MIC (S. pneumoniae ATCC 49619; [2]) was 0.125 mg/L (≈ 0.187 µM), the MIC (E. coli LptD; E. coli LptD) was 2 mg/L (≈ 2.99 µM) and the MIC (S. aureus ATCC 29213; [3]) was 2 mg/L (≈ 2.99 µM). The MIC (K. oxytoca Clinical; K. oxytoca Clinical) was 32 mg/L (≈ 47.9 µM), the MIC (E. coli ATCC 25922; E. coli ATCC 25922) was 32 mg/L (≈ 47.9 µM) and the MIC (E. faecalis ATCC 29212; [4]) was 1 mg/L (≈ 1.5 µM). It also gave an MIC (S. pyogenes ATCC 19615; [5]) of 0.25 mg/L (≈ 0.374 µM), an MIC (E. coli ΔTolC; E. coli ΔTolC) of 2 mg/L (≈ 2.99 µM) and an MIC (E. faecium Clinical VRE) of 4 mg/L (≈ 5.99 µM). It also gave an MIC (S. aureus cErmA) of 8 mg/L (≈ 12 µM).
`CS[C@H]1O[C@H]([C@H](NC(=O)[C@H]2NC[C@@H]3C[C@H](CC(C)C)CCO[C@H]32)[C@H](C)Sc2ccc(CO)cc2)[C@H](O)[C@H](O)[C@H]1O` [FSA-09-05-069, (4S,5aS,8S,8aR)-N-((1S,2S)-2-((4-(Hydroxymethyl)phenyl)thio)-1-((2R,3R,4S,5R,6R)-3,4,5-trihydroxy-6-(methylthio)tetrahydro-2H-pyran-2-yl)propyl)-4-isobutyloctahydro-2H-oxepino[2,3-c]pyrrole-8-carboxamide] was tested, and the MIC (S. pneumoniae ATCC 49619; [2]) was 0.125 mg/L (≈ 0.209 µM), the MIC (E. coli LptD; E. coli LptD) was 16 mg/L (≈ 26.7 µM) and the MIC (S. aureus ATCC 29213; [3]) was 1 mg/L (≈ 1.67 µM). For the same compound, the MIC (K. oxytoca Clinical; K. oxytoca Clinical) was 128 mg/L (≈ 214 µM), the MIC (E. coli ATCC 25922; E. coli ATCC 25922) was 128 mg/L (≈ 214 µM) and the MIC (E. faecalis ATCC 29212; [4]) was 1 mg/L (≈ 1.67 µM). It also gave an MIC (S. pyogenes ATCC 19615; [5]) of 0.25 mg/L (≈ 0.417 µM), an MIC (E. coli ΔTolC; E. coli ΔTolC) of 4 mg/L (≈ 6.68 µM) and an MIC (E. faecium Clinical VRE) of 16 mg/L (≈ 26.7 µM). For the same compound, the MIC (S. aureus cErmA) was 64 mg/L (≈ 107 µM).
Compound `CSC1O[C@H]([C@H](NC(=O)[C@H]2NC[C@@H]3C[C@H](CCC(F)F)CCO[C@H]32)[C@H](C)Cl)C(O)C(O)[C@H]1O` (stereo partly drawn) [FSA-12-03-055] has an MIC (S. pneumoniae ATCC 49619; [2]) of 0.06 mg/L (≈ 0.116 µM), an MIC (E. coli LptD; E. coli LptD) of 4 mg/L (≈ 7.74 µM) and an MIC (S. aureus ATCC 29213; [3]) of 0.125 mg/L (≈ 0.242 µM). It also gave an MIC (K. oxytoca Clinical; K. oxytoca Clinical) of 16 mg/L (≈ 30.9 µM), an MIC (E. coli ATCC 25922; E. coli ATCC 25922) of 16 mg/L (≈ 30.9 µM) and an MIC (E. faecalis ATCC 29212; [4]) of 0.25 mg/L (≈ 0.484 µM). The MIC (S. pyogenes ATCC 19615; [5]) was 0.06 mg/L (≈ 0.116 µM), the MIC (E. coli ΔTolC; E. coli ΔTolC) was 1 mg/L (≈ 1.93 µM) and the MIC (E. faecium Clinical VRE) was 8 mg/L (≈ 15.5 µM). For the same compound, the MIC (S. aureus cErmA) was 16 mg/L (≈ 30.9 µM).
Compound `CS[C@H]1O[C@H]([C@H](NC(=O)[C@H]2NC[C@@H]3C[C@H](CC(C)C)CCO[C@H]32)[C@@H](C)O)[C@H](O)[C@H](O)[C@H]1O` [FSA-09-04-072, (4S,5aS,8S,8aR)-N-((1R,2R)-2-Hydroxy-1-((2R,3R,4S,5R,6R)-3,4,5-trihydroxy-6-(methylthio)tetrahydro-2H-pyran-2-yl)propyl)-4-isobutyloctahydro-2H-oxepino[2,3-c]pyrrole-8-carboxamide] has an MIC (S. pneumoniae ATCC 49619; [2]) of 0.5 mg/L (≈ 1.05 µM), an MIC (E. coli LptD; E. coli LptD) of 2 mg/L (≈ 4.2 µM) and an MIC (S. aureus ATCC 29213; [3]) of 1 mg/L (≈ 2.1 µM). The MIC (K. oxytoca Clinical; K. oxytoca Clinical) was 16 mg/L (≈ 33.6 µM), the MIC (E. coli ATCC 25922; E. coli ATCC 25922) was 16 mg/L (≈ 33.6 µM) and the MIC (E. faecalis ATCC 29212; [4]) was 0.25 mg/L (≈ 0.525 µM). It also gave an MIC (S. pyogenes ATCC 19615; [5]) of 0.5 mg/L (≈ 1.05 µM), an MIC (E. coli ΔTolC; E. coli ΔTolC) of 1 mg/L (≈ 2.1 µM) and an MIC (E. faecium Clinical VRE) of 0.5 mg/L (≈ 1.05 µM). For the same compound, the MIC (S. aureus cErmA) was 32 mg/L (≈ 67.1 µM).
For `CS[C@H]1O[C@H]([C@H](NC(=O)[C@H]2NC[C@@H]3C[C@H](CC(C)C)CCO[C@H]32)[C@H](C)Sc2ccc(CN3CCNCC3)cc2)[C@H](O)[C@H](O)[C@H]1O` [FSA-09-05-076, (4S,5aS,8S,8aR)-4-Isobutyl-N-((1S,2S)-2-((4-(piperazin-1-ylmethyl)phenyl)thio)-1-((2R,3R,4S,5R,6R)-3,4,5-trihydroxy-6-(methylthio)tetrahydro-2H-pyran-2-yl)propyl)octahydro-2H-oxepino[2,3-c]pyrrole-8-carboxamide], the MIC (S. pneumoniae ATCC 49619; [2]) was 1 mg/L (≈ 1.5 µM), the MIC (E. coli LptD; E. coli LptD) was 16 mg/L (≈ 24 µM) and the MIC (S. aureus ATCC 29213; [3]) was 8 mg/L (≈ 12 µM). It also gave an MIC (K. oxytoca Clinical; K. oxytoca Clinical) of 16 mg/L (≈ 24 µM), an MIC (E. coli ATCC 25922; E. coli ATCC 25922) of 128 mg/L (≈ 192 µM) and an MIC (E. faecalis ATCC 29212; [4]) of 4 mg/L (≈ 6 µM). For the same compound, the MIC (S. pyogenes ATCC 19615; [5]) was 0.25 mg/L (≈ 0.375 µM), the MIC (E. coli ΔTolC; E. coli ΔTolC) was 8 mg/L (≈ 12 µM) and the MIC (E. faecium Clinical VRE) was 16 mg/L (≈ 24 µM). The MIC (S. aureus cErmA) was 128 mg/L (≈ 192 µM).
